For orientation: Ki means the equilibrium dissociation constant of an inhibitor or competing ligand from its target. One may read the inhibition as how much of the control response was suppressed.

29 molecules from patent publication US7091199B1, “Thienoisoxazole phenoxy unsubstituted ethyl and propyl derivatives useful as d4 antagonists” (Aventis Pharmaceuticals Inc., priority 1999, dated 2006) can be followed below.

Each structure is given as a SMILES string. Structures can show the parent of a compound that is named as a salt.

The target of the first test is T1, human D4 receptor (D4.2 sub-type) (Homo sapiens, UniProt P21917, DEL271-302).
T1 sequence (P21917 with tags, fused parts or gaps DEL271-302): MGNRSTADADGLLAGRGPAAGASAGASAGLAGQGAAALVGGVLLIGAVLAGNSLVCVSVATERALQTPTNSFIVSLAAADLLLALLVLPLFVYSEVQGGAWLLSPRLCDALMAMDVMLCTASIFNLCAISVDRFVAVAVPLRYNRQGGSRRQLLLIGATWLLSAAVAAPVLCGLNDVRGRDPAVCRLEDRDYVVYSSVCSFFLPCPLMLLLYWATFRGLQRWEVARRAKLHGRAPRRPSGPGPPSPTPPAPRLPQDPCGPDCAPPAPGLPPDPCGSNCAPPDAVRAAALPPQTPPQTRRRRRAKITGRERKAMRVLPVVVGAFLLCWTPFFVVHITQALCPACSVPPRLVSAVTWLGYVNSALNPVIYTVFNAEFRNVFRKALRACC
Kind of test: D4 receptor binding assay (3H-spiperone displacement). The note with it: 3H-spiperone 0.25 nM, HEK cell membranes, human D4.2; read-out: D4 RBA Ki. As to the method: D4 receptor-binding affinities of the compounds were evaluated according to their ability to reduce binding of ^3H-spiperone as compared to the reference compound clozapine. The potency of the test compound to reduce ^3H-spiperone binding directly correlated to its binding affinity for the receptor.
[…] (human embryonic kidney) cells stably transfected with human D4 receptor (D4.2 sub-type) were grown in NUNC cell factories for 5 days (75% confluency) without a media change and removed with versene (approximately 19 mg of cells per cell factory tray). The cells were then centrifuged in a Sorval centrifuge for 10 min, 5000 rpm (GS3 rotor) and the pellets quickly frozen in liquid nitrogen and stored at −80° C. until used in binding assay. When used in the assay, cells were thawed on ice for 20 min and then 10 mL of incubation buffer (50 mM Tris, 1 mM EDTA, 4 mM MgCl2, 5 mM KCl, 1.5 mM CaCl2, 120 mM NaCl, pH 7.4) was added. The cells were then vortexed to resuspend pellet and homogenized with a Kinematica, CH-6010 Kriens-LU, homogenizer for 15 seconds at setting 7. Concentration of receptor protein was determined using the Pierce BCA assay.
The incubation was started by the addition of 100 μl (50 μg protein) membrane homogenate to a solution of 300 μl incubation buffer and 100 μl (0.25 nM final conc.) ^3H-spiperone (90 Ci/mmol, Amersham, diluted in borosilicate glass vial) in 96-well polypropylene plates (1 mL per well). The plates were vortexed and incubated at room temperature for 90 minutes. The binding reaction was stopped by filtering using a Packard Harvester. The samples were filtered under vacuum over glass fibre filter plates (Whatman GF/B) presoaked for 2 hours in 0.3% polyethylenimine (PEI) in 50 mM Tris buffer (pH 7.4). The filters were then washed 6 times with 7 mL ice cold 50 mM Tris buffer (pH 7.4). The filter plates were dried overnight and 35 μl of Microscint-O (Packard) was added. The plates were sealed and counted in the Packard Top Count (3 minutes per well).
The incubation was started by the addition of 100 μl (50 μg protein) membrane homogenate to a solution of 200 μl incubation buffer, 100 μl ^3H-spiperone (90 Ci/mmol, Amersham, diluted in borosilicate glass vial to 0.25 nM final conc.) and 100 μl (30 μM final conc.) of fresh dopamine (Research Biochemicals Inc., light protected and dissolved in incubation buffer) in 96-well polypropylene plates (1 mL per well). The plates were vortexed and incubated at room temperature for 90 minutes at which time the binding reaction was stopped by filtering. The filters were washed and counted using the same procedure as in the total binding assay described above to give the non-specific binding value (NSB).
The incubation was started by the addition, in 96-well polypropylene plates (1 mL per well), of 100 μl (50 μg protein) membrane homogenate to a solution of 200 μl incubation buffer, 100 μl (0.25 nM final conc.) ^3H-spiperone (90 Ci/mmol, Amersham, diluted in borosilicate glass vial) and 100 μl of test compound that was prepared from 1 mM stock dissolved in DMSO and stored at −20° C. in polypropylene cryogenic storage vials until dilution in incubation buffer in 96-well polypropylene plates. The plates were vortexed and incubated at room temperature for 90 minutes at which time the binding reaction was stopped by filtering. The filters were washed and counted using the same procedure as in the total binding assay described above to give the displacement binding value (BD).
The test compounds were initially assayed at 1 and 0.1 μM and then at a range of concentrations chosen such that the middle dose would cause about 50% inhibition of ^3H-spiperone binding. Specific binding in the absence of test compound (B0) was the difference of total binding (BT) minus non-specific binding (NSB) and similarly specific binding (in the presence of test compound) (B) was the difference of displacement binding (BD) minus non-specific binding (NSB). […]
For the molecule `Fc1ccccc1CNCCCOc1cccc(-c2noc3ccsc23)c1` [Compound 2, (2-fluoro-benzyl)-[3-(3-thieno[2,3-d]isoxazol-3-yl-phenoxy)-propyl]-amine], the Ki turned out to be 62 nM. Regarding `Clc1ccc(CNCCCOc2cccc(-c3noc4ccsc34)c2)cc1` [Compound 4, (4-chloro-benzyl)-[3-(3-thieno[2,3-d]isoxazol-3-yl-phenoxy)-propyl]-amine], the Ki worked out at 45 nM.

With `COc1ccc(CNCCCOc2cccc(-c3noc4ccsc34)c2)cc1` [Compound 5, (4-methoxy-benzyl)-[3-(3-thieno[2,3-d]isoxazol-3-yl-phenoxy)-propyl]-amine], the Ki is 92 nM.

`c1cc(OCCCNCc2cccs2)cc(-c2noc3ccsc23)c1` [Compound 6, [3-(3-thieno[2,3-d]isoxazol-3-yl-phenoxy)-propyl]-thiophen-2-ylmethylamine]: the Ki came out at 27 nM. Take `c1cncc(CNCCCOc2cccc(-c3noc4ccsc34)c2)c1` [Compound 8, pyridin-3-ylmethyl-[3-(3-thieno[2,3-d]isoxazol-3-yl-phenoxy)-propyl]-amine]: the Ki is 76 nM.

On to `c1ccc(CNCCOc2cccc(-c3noc4ccsc34)c2)cc1` [Compound 16, benzyl-[2-(3-thieno[2,3-d]isoxazol-3-yl-phenoxy)-ethyl]-amine], for which the Ki was 7.6 nM. Consider `COc1ccccc1CNCCOc1cccc(-c2noc3ccsc23)c1` [Compound 21, (2-methoxy-benzyl)-[2-(3-thieno[2,3-d]isoxazol-3-yl-phenoxy)-ethyl]-amine], for which the Ki turned out to be 14.2 nM.

As to `c1cc(OCCNCc2ccsc2)cc(-c2noc3ccsc23)c1` [Compound 33, [2-(3-thieno[2,3-d]isoxazol-3-yl-phenoxy)-ethyl]-thiophen-3-ylmethylamine hydrochloride], the Ki came to 15 nM.

With `COc1cccc(CNCCOc2cccc(-c3noc4ccsc34)c2)c1` [Compound 36, (3-methoxy-benzyl)-[2-(3-thieno[2,3-d]isoxazol-3-yl-phenoxy)-ethyl]-amine], the Ki stood at 13 nM. Consider `Fc1ccc(CNCCOc2cccc(-c3noc4ccsc34)c2)cc1F` [Compound 37, (3,4-difluoro-benzyl)-[2-(3-thieno[2,3-d]isoxazol-3-yl-phenoxy)-ethyl]-amine], for which the Ki is 32 nM. In the case of `Cc1ccc(CNCCCOc2cccc(-c3noc4ccsc34)c2)cc1` [Compound 39, (4-methyl-benzyl)-[3-(3-thieno[2,3-d]isoxazol-3-yl-phenoxy)-propyl]-amine], the Ki amounted to 20 nM. Same read-out and setting: next, `COc1cccc(CNCCCOc2cccc(-c3noc4ccsc34)c2)c1` [Compound 41, (3-methoxy-benzyl)-[3-(3-thieno[2,3-d]isoxazol-3-yl-phenoxy)-propyl]-amine]: 44 nM; `Fc1ccc(CNCCCOc2cccc(-c3noc4ccsc34)c2)cc1F` [Compound 42, (3,4-difluoro-benzyl)-[3-(3-thieno[2,3-d]isoxazol-3-yl-phenoxy)-propyl]-amine]: 47 nM.

Still in this test, the particulars now being: @ 1 μM test compound; 3H-spiperone binding; read-out: D4 RBA % Inhibition (@ 1 μM).
With `OC(CNCCCOc1cccc(-c2noc3ccsc23)c1)c1ccccc1` (centres unmarked) [Compound 9, 1-phenyl-2-[3-(3-thieno[2,3-d]isoxazol-3-yl-phenoxy)-propylamino]-ethanol], the inhibition at 1 µM came to 73%. For the molecule `c1ccc(N2CCN(CCCOc3cccc(-c4noc5ccsc45)c3)CC2)cc1` [Compound 10, 3-{3-[3-(4-phenyl-piperazin-1-yl)-propoxy]-phenyl}-thieno[2,3-d]isoxazole], the inhibition at 1 µM amounted to 95%. For the molecule `Fc1ccc(N2CCN(CCCOc3cccc(-c4noc5ccsc45)c3)CC2)cc1` [Compound 11, 3-(3-{3-[4-(4-fluoro-phenyl)-piperazin-1-yl]-propoxy}-phenyl)-thieno[2,3-d]isoxazole], the inhibition at 1 µM worked out at 91%. As for `Fc1ccccc1N1CCN(CCCOc2cccc(-c3noc4ccsc34)c2)CC1` [Compound 12, 3-(3-{3-[4-(2-fluoro-phenyl)-piperazin-1-yl]-propoxy}-phenyl)-thieno[2,3-d]isoxazole], the inhibition at 1 µM was determined as 94%.

As for `NS(=O)(=O)c1ccc(CNCCCOc2cccc(-c3noc4ccsc34)c2)cc1` [Compound 14, 4-{[3-(3-thieno[2,3-d]isoxazol-3-yl-phenoxy)-propylamino]-methyl}-benzenesulfonamide], the inhibition at 1 µM came out at 60%. `NS(=O)(=O)c1ccc(CCNCCCOc2cccc(-c3noc4ccsc34)c2)cc1` [Compound 15, 4-{2-[3-(3-thieno[2,3-d]isoxazol-3-yl-phenoxy)-propylamino]-ethyl}-benzenesulfonamide]: the inhibition at 1 µM is 65%. As to `Clc1ccc(CNCCOc2cccc(-c3noc4ccsc34)c2)cc1Cl` [Compound 22, (3,4-dichloro-benzyl)-[2-(3-thieno[2,3-d]isoxazol-3-yl-phenoxy)-ethyl]-amine], the inhibition at 1 µM was found to be 99%. On to `c1cc(OCCNCc2cccs2)cc(-c2noc3ccsc23)c1` [Compound 24, [2-(3-thieno[2,3-d]isoxazol-3-yl-phenoxy)-ethyl]-thiophen-2-ylmethyl-amine], for which the inhibition at 1 µM turned out to be 95%. Turning to `c1cncc(CNCCOc2cccc(-c3noc4ccsc34)c2)c1` [Compound 25, pyridin-3-ylmethyl-[2-(3-thieno[2,3-d]isoxazol-3-yl-phenoxy)-ethyl]-amine], the inhibition at 1 µM is 93%. Turning to `c1ccc(N2CCN(CCOc3cccc(-c4noc5ccsc45)c3)CC2)cc1` [Compound 28, 3-{3-[2-(4-phenyl-piperazin-1-yl)-ethoxy]-phenyl}-thieno[2,3-d]isoxazole], the inhibition at 1 µM was determined as 78%. For the molecule `c1cc(OCCN2CCc3ccccc3C2)cc(-c2noc3ccsc23)c1` [Compound 29, 2-[2-(3-thieno[2,3-d]isoxazol-3-yl-phenoxy)-ethyl]-1,2,3,4-tetrahydroisoquinoline], the inhibition at 1 µM turned out to be 60%. `Fc1ccccc1CNCCOc1cccc(-c2noc3ccsc23)c1` [Compound 34, (2-fluoro-benzyl)-[2-(3-thieno[2,3-d]isoxazol-3-yl-phenoxy)-ethyl]-amine]: the inhibition at 1 µM turned out to be 93%.

Turning to `Clc1ccccc1CNCCOc1cccc(-c2noc3ccsc23)c1` [Compound 35, (2-chloro-benzyl)-[2-(3-thieno[2,3-d]isoxazol-3-yl-phenoxy)-ethyl]-amine], the inhibition at 1 µM worked out at 88%. As for `c1cc(OCCNC2CCc3ccccc32)cc(-c2noc3ccsc23)c1` (centres unmarked) [Compound 38, indan-1-yl-[2-(3-thieno[2,3-d]isoxazol-3-yl-phenoxy)-ethyl)-amine], the inhibition at 1 µM amounted to 95%.

On to `Clc1ccccc1CNCCCOc1cccc(-c2noc3ccsc23)c1` [Compound 40, (2-chloro-benzyl)-[3-(3-thieno[2,3-d]isoxazol-3-yl-phenoxy)-propyl]-amine], for which the inhibition at 1 µM turned out to be 89%.

The test is the same for the next values; noted with them: read-out: D4 RBA % Inhibition (@ 1 μM).
As for `c1ccc(C2CCN(CCOc3cccc(-c4noc5ccsc45)c3)CC2)cc1` [Compound 30, 3-{3-[2-(4-phenyl-piperidin-1-yl)-ethoxy]-phenyl}-thieno[2,3-d]isoxazole hydrochloride], the inhibition at 1 µM came out at 68%.
